In PubChem BioAssay AID200 (DTP/NCI, 2004) one finds T/C data, which are given here for 14 molecules.

The structures appear in SMILES notation. Where “and” joins values, the source holds several entries; their conditions need not be identical. Identical values can stand only once. Inconclusive results and toxic doses are left out.

The test system of the assay is B6C3F1 mice, B16 melanoma ip, median survival T/C. Nature of the assay: NCI In Vivo Anticancer Drug Screen. Data for tumor model B16 Melanoma (intraperitoneal) in B6C3F1 mice. Particulars: endpoint: median survival time, higher = longer survival. Summed up:
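Tumor-bearing mice received test compound; a separate group got vehicle only. Survival was then compared, with results reported as treated over control.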

Where [1] appears, read: dose: 25.0 mg/kg/injection, schedule: Q01DX009 (ip), vehicle: Klucel (hydroxypropylcellulose) (HPC).
Setting [2] is: dose: 50.0 mg/kg/injection, schedule: Q01DX009 (ip), vehicle: Klucel (hydroxypropylcellulose) (HPC).
The mark [3] stands for this setting: dose: 100.0 mg/kg/injection, schedule: Q01DX009 (ip), vehicle: Klucel (hydroxypropylcellulose) (HPC).
The mark [4] stands for this setting: dose: 200.0 mg/kg/injection, schedule: Q01DX009 (ip), vehicle: Klucel (hydroxypropylcellulose) (HPC).
[5] abbreviates: dose: 100.0 mg/kg/injection, schedule: Q01DX009 (ip), vehicle: saline.
Setting [6] is: dose: 200.0 mg/kg/injection, schedule: Q01DX009 (ip), vehicle: saline.
[7] abbreviates: dose: 6.25 mg/kg/injection, schedule: Q01DX009 (ip), vehicle: Klucel (hydroxypropylcellulose) (HPC).
Where [8] appears, read: dose: 12.5 mg/kg/injection, schedule: Q01DX009 (ip), vehicle: Klucel (hydroxypropylcellulose) (HPC).
The mark [9] stands for this setting: dose: 25.0 mg/kg/injection, schedule: Q01DX009 (ip), vehicle: saline with Tween-80.
Where [10] appears, read: dose: 50.0 mg/kg/injection, schedule: Q01DX009 (ip), vehicle: saline with Tween-80.
[11] abbreviates: dose: 100.0 mg/kg/injection, schedule: Q01DX009 (ip), vehicle: saline with Tween-80.
[12] abbreviates: dose: 200.0 mg/kg/injection, schedule: Q01DX009 (ip), vehicle: saline with Tween-80.

With `COc1cc([C@@H]2c3cc4c(cc3[C@@H](OC3OC5CO[C@@H](c6cccs6)OC5C(O)C3O)[C@H]3COC(=O)[C@H]23)OCO4)cc(OC)c1O` (some centres not stated), the T/C (dose: 0.25 mg/kg/injection, schedule: Q01DX009 (ip), vehicle: saline) is 110 % of control; the T/C (dose: 0.5 mg/kg/injection, schedule: Q01DX009 (ip), vehicle: saline) was 123 % of control; the T/C (dose: 1.0 mg/kg/injection, schedule: Q01DX009 (ip), vehicle: saline) was 122 % of control; the T/C (dose: 4.0 mg/kg/injection, schedule: Q01DX009 (ip), vehicle: saline) is 162 % of control.

Turning to `CC[C@@]1(O)C(=O)OCc2c1cc1n(c2=O)Cc2cc3cc(O)ccc3nc2-1`, the T/C was 155 % of control (dose: 0.37 mg/kg/injection, schedule: Q01DX009 (ip), vehicle: suspension in saline); 160 % of control (dose: 0.38 mg/kg/injection, schedule: Q01DX009 (ip), vehicle: other); 191 % of control (dose: 0.75 mg/kg/injection, schedule: Q01DX009 (ip), vehicle: other); 183 % of control (dose: 0.75 mg/kg/injection, schedule: Q01DX009 (ip), vehicle: suspension in saline); 197 % of control (dose: 1.5 mg/kg/injection, schedule: Q01DX009 (ip), vehicle: other); 201 % of control (dose: 1.5 mg/kg/injection, schedule: Q01DX009 (ip), vehicle: suspension in saline). Besides, the T/C (dose: 3.0 mg/kg/injection, schedule: Q01DX009 (ip), vehicle: suspension in saline) is 201 % of control.

Take `O=C1SC(c2ccccc2)=S=C1c1ccccc1`: the T/C runs as follows: under setting [1], 92 % of control; under setting [2], 97 % of control; under setting [3], 98 % of control; under setting [4], 93 % of control.

As to `Nc1ccc(OC(=O)Oc2ccc(N)cc2)cc1`, the T/C under setting [5] is 113 % of control; the T/C under setting [6] is 104 % of control; the T/C (dose: 400.0 mg/kg/injection, schedule: Q01DX009 (ip), vehicle: saline) was 98 % of control.

For the molecule `Nc1ncc(S(=O)(=O)c2ccc([N+](=O)[O-])cc2)c(N)n1`, the T/C is, setting by setting: (dose: 75.0 mg/kg/injection, schedule: Q01DX009 (ip), vehicle: saline) 100 % of control; (dose: 150.0 mg/kg/injection, schedule: Q01DX009 (ip), vehicle: saline) 102 % of control; (dose: 300.0 mg/kg/injection, schedule: Q01DX009 (ip), vehicle: saline) 87 % of control.

For the molecule `CC(=O)OC1=NC(C)c2c1cc(OC(C)=O)[nH]c2=O` (configuration not stated), the T/C was 116 % of control and 105 % of control under setting [7]; 110 % of control and 98 % of control under setting [8]; 113 % of control and 100 % of control under setting [1]; 90 % of control and 101 % of control under setting [2]; 88 % of control under setting [3].

In the case of `O=C1OCC2C(=O)OCC12` (configuration not stated), the T/C was 99 % of control (dose: 12.5 mg/kg/injection, schedule: Q01DX009 (ip), vehicle: saline with Tween-80); 99 % of control under setting [9]; 102 % of control under setting [10]; 101 % of control under setting [11]; 106 % of control under setting [12].

As for `COC1C(CO)OC(n2c3c(Cl)cccc3c3c4c(c5c6cccc(Cl)c6[nH]c5c32)C(=O)NC4=O)C(O)C1O` (configuration not stated), the T/C (dose: 25.0 mg/kg/injection, schedule: Q01DX009 (ip), vehicle: distilled water + Tween-80) was 150 % of control; the T/C (dose: 100.0 mg/kg/injection, schedule: Q01DX009 (ip), vehicle: distilled water + Tween-80) is 172 % of control and 173 % of control; the T/C (dose: 200.0 mg/kg/injection, schedule: Q01DX009 (ip), vehicle: distilled water + Tween-80) is 161 % of control.

Consider `O=S(CCCl)CCCl`, for which the T/C was 96 % of control and 107 % of control under setting [7]; 98 % of control and 101 % of control under setting [8]; 98 % of control and 107 % of control under setting [1]; 89 % of control and 96 % of control under setting [2].

On to `C=CCOCC1CO1` (configuration not stated), for which the T/C (dose: 12.5 mg/kg/injection, schedule: Q01DX009 (ip), vehicle: saline) was 98 % of control and 99 % of control; the T/C (dose: 25.0 mg/kg/injection, schedule: Q01DX009 (ip), vehicle: saline) is 111 % of control and 101 % of control; the T/C (dose: 50.0 mg/kg/injection, schedule: Q01DX009 (ip), vehicle: saline) is 92 % of control and 103 % of control; the T/C under setting [5] was 111 % of control and 104 % of control; the T/C under setting [6] was 111 % of control and 99 % of control.

Take `O=C1CN(CCN2CC(=O)N(CN3CCOCC3)C(=O)C2)CC(=O)N1CN1CCOCC1`: the T/C is 107 % of control (dose: 12.5 mg/kg/injection, schedule: Q01DX009 (ip), vehicle: water); 114 % of control and 118 % of control (2×) (dose: 25.0 mg/kg/injection, schedule: Q01DX009 (ip), vehicle: water); 150 % of control and 154 % of control (dose: 50.0 mg/kg/injection, schedule: Q01DX009 (ip), vehicle: water).

Consider `Nc1ccc(C(=O)O)c(O)c1`, for which the T/C is 90 % of control (dose: 4.7 mg/kg/injection, schedule: Q01DX009 (ip), vehicle: saline with Tween-80); 95 % of control under setting [7]; 113 % of control and 103 % of control (dose: 9.3 mg/kg/injection, schedule: Q01DX009 (ip), vehicle: saline with Tween-80); 101 % of control under setting [8]; 93 % of control and 102 % of control (dose: 18.7 mg/kg/injection, schedule: Q01DX009 (ip), vehicle: saline with Tween-80); 109 % of control (2×) and 97 % of control (dose: 37.5 mg/kg/injection, schedule: Q01DX009 (ip), vehicle: saline with Tween-80). The T/C was 99 % of control and 100 % of control and 106 % of control (dose: 75.0 mg/kg/injection, schedule: Q01DX009 (ip), vehicle: saline with Tween-80); 92 % of control under setting [3]; 93 % of control (dose: 150.0 mg/kg/injection, schedule: Q01DX009 (ip), vehicle: saline with Tween-80); 86 % of control under setting [4]; 97 % of control (dose: 300.0 mg/kg/injection, schedule: Q01DX009 (ip), vehicle: saline with Tween-80).

Turning to `CCOC(=O)c1cn(C)c2c1C(O)=C(C(=O)OC)CC(=O)N2`, the T/C runs as follows: under setting [9], 92 % of control; under setting [10], 96 % of control; under setting [11], 96 % of control; under setting [12], 96 % of control; (dose: 400.0 mg/kg/injection, schedule: Q01DX009 (ip), vehicle: saline with Tween-80) 92 % of control.

On to `CC(=O)O[C@@H]1C(=O)C=C(C)[C@@H]2[C@@H](OC(=O)C=C(C)C)[C@H]3OC(=O)C[C@H]4[C@@H](C)[C@@H](O)[C@]5(O)OC[C@]34[C@H]5[C@@]12C`, for which the T/C was 163 % of control (dose: 1.0 mg/kg/injection, schedule: Q01DX005 (ip), vehicle: distilled water + Tween-80); 160 % of control (dose: 2.0 mg/kg/injection, schedule: Q01DX005 (ip), vehicle: distilled water + Tween-80); 155 % of control (dose: 4.0 mg/kg/injection, schedule: Q01DX009 (ip), vehicle: distilled water + Tween-80); 156 % of control (dose: 8.0 mg/kg/injection, schedule: Q01DX005 (ip), vehicle: distilled water + Tween-80); 162 % of control (dose: 8.0 mg/kg/injection, schedule: Q01DX009 (ip), vehicle: distilled water + Tween-80).
